Test results from patent publication US20130011538A1, “CRYSTAL OF MULTIVALENT METAL SALT OF MONATIN” (Ajinomoto Co., Inc., priority 2011, published 2013).
Where a name gives a salt, the structure may show the parent alone.

Assays:
[1] = Sweetness intensity evaluated by panelists in comparison with an aqueous solution of 5% sucrose; conditions: in comparison with the sweetness intensity of an aqueous solution of 5% sucrose; average of 7 panelists
Description: <Moisture content> 10.8 wt % (corresponding to the following equation: monatin:water=2:4) <Magnesium content> 3.6 wt % (corresponding to the following equation: monatin:magnesium=2:1)< <Characteristic X-ray diffraction peaks (2θ±0.2°, CuKα)> 8.9°, 11.2°, 15.0°, 17.8°, and 22.5° (FIG. 3)< <Crystalline form> The crystalline form in the deposited ML was a relatively small flake-like form (FIG. 4)< <Sweetness intensity> 2700 times higher (in comparison with the sweetness intensity of an aqueous solution of 5% sucrose, average of the sweetness intensities evaluated by 7 panelists)

[2] = Transmittance of monatin solution after storage (products containing sucrose); assay type: physicochemical; conditions: storage at 44° C. and 78%
Description: (§1) <Name of device> UV-visible spectrophotometer, Cary 50, manufactured by Varian Medical Systems, Inc. <Measurement wavelength>430 nm
(§2) <Sample> 1 g of sweetener composition is totally dissolved in 50 mL of water.
1 g of each sweetener composition shown in the compositional table 2 was filled in a paper packaging material, and the packaging material was sealed with a heat seal. The composition was stored for a given period of time in a constant temperature and constant humidity device at 44° C. and 78%. Then, the total amount of the stored sample was dissolved in 50 mL of water, and the residual ratio of each monatin salt was calculated from the data obtained by HPLC analysis of the solution.

[3] = Transmittance of monatin solution after storage (products containing glucose); assay type: physicochemical; conditions: storage at 44° C. and 78%
Description: as §1, §2
1 g of each sweetener composition shown in the compositional table 1 was filled in a paper packaging material, and the packaging material was sealed with a heat seal. The composition was stored for a given period of time in a constant temperature and constant humidity device at 44° C. and 78%. Then, the total amount of the stored sample was dissolved in 50 mL of water, and the residual ratio of each monatin salt was calculated from the data obtained by HPLC analysis of the solution.

Compound | Sweetness intensity [1] [times] | Change in color after storage [2] | Transmittance of the solution after storage (in words) [2] | Change in color after storage [3] | Transmittance of the solution after storage (in words) [3]
NC(CC(O)(Cc1c[nH]c2ccccc12)C(=O)[O-])C(=O)O.NC(CC(O)(Cc1c[nH]c2ccccc12)C(=O)[O-])C(=O)O.O.O.O.O.[Mg+2] [Example 2, ((2R,4R)-monatin)2 magnesium salt tetrahydrate] | 2700 |  |  |  | 
NC(CC(O)(Cc1c[nH]c2ccccc12)C(=O)O)C(=O)O [potassium salt, (2R,4R)-monatin monopotassium salt] |  | colored yellow | decreased | colored yellow | decreased
